Results published in US20220241354A1, “COMPOSITION” (MORINAGA MILK INDUSTRY CO., LTD., priority 2019, published 2022).

Assays:
[1] = tested on: Bifidobacterium infantis M-63; assay: Growth promoting effect on Bifidobacterium infantis M-63 (turbidity at 600 nm); format: cell-based; conditions: 2′-FL 1.000 mass %, lactoferrin 0.000 mg/mL; 37° C., 24 hours, n = 12
Experimental: 150 μL of a pre-culture solution of Bifidobacterium breve M-16V was added to 3 mL of MRS medium prepared in (1) (i), and was anaerobically cultured at 37° C. for 16 hours. After culturing, the cells were separated from the culture solution by centrifuging at 1500×g for 5 minutes. The culture solution was removed, and the cells were resuspended in 3 mL of glucose-free MRS medium prepared in (1) (ii).
The pre-culture solution prepared in (2) was added to the glucose-free MRS medium prepared in (1) (ii) to have a final concentration of 1 v/v %. Further, the 2′-fucosyllactose (2′-FL) solution and the lactoferrin solution prepared in (1) (iii) were respectively added to have the final concentrations shown in Table 2, and were dispensed into a 96-well plate at 200 μL/well.
(§1) Then, the cells were anaerobically cultured at 37° C. for 24 hours. After culturing, turbidity was measured at a wavelength of 600 nm using a microplate reader (Corona Electric) to evaluate the growth of bifidobacteria.
The same operation as in Example 1 was carried out except that the bifidobacteria were replaced with Bifidobacterium infantis M-63, and the growth was evaluated.

[2] = tested on: Bifidobacterium breve M-16V; assay: Growth promoting effect on Bifidobacterium breve M-16V (turbidity at 600 nm after anaerobic culture); format: cell-based; conditions: 2′-FL 1.000 mass %, lactoferrin 0.000 mg/mL; glucose-free MRS, 37° C., 24 hours, n = 4
Experimental: (§2) DifcoMRS (BD) was dissolved in purified water as described in a package insert and sterilized at 115° C. for 15 minutes. L-Cysteine hydrochloride (Wako) was dissolved in purified water, filtered and sterilized, and was aseptically added to MRS medium cooled to room temperature after sterilization to have a final concentration of 0.05% by mass.
as §2, with “A reagent” for “DifcoMRS (BD)”, “with the composition shown” for “as described”, “Table 1” for “a package insert”
Human milk oligosaccharide (2′-fucosyllactose (2′-FL) (Carbosynth)) and lactoferrin (produced by Morinaga Milk Industry Co., Ltd., iron content 15.8 mg/100 g) were dissolved in purified water, respectively. They were filtered and sterilized after dissolution.
150 μL of a pre-culture solution of Bifidobacterium breve M-16V was added to 3 mL of MRS medium prepared in (1) (i), and was anaerobically cultured at 37° C. for 16 hours. […]
as §1

2′-fucosyllactose [2′-FL] gave an OD600 [1] of 0.440 and an OD600 [2] of 0.076.
